Holding throughout (type): ADME, organism-based
Data set [1] in a line: Cmax in rat after 4 hrs. To be noted: in vivo.
Data set [2] in a line: AUC (0 to 6 hrs) in rat. Also noted: time < 6 hr. The settings on record: plasma.
A short description of data set [3]: Drug level in rat after 6 hrs. The settings on record: in vivo, read-out: Drug uptake.

Broadly, the Cmax is the highest concentration seen after dosing. In general, AUC(0-t) refers to the area under the concentration-time curve up to a stated or last time point. Lower therefore signals low exposure. The molecule `CC1(C)CCC(N2CCC3(CC2)C(=O)NCN3c2ccccc2)c2cc(Cl)c(Cl)cc21` (stereo not drawn) had a Cmax in data set [1] of 518 nM. Further, the AUC(0-t) at 6 h in data set [2] came to 2.11 µM·h. For the same molecule, in data set [3], the concentration at 6 h turned out to be 467 nM.

For the origin of these results see ChEMBL document CHEMBL1139143, “Synthesis and structure-activity relationships of N-substituted spiropiperidines as nociceptin receptor ligands” (Bioorg Med Chem Lett, 2007).
